Assay results published in US20110195924A1, “Methods of Inhibiting the Interaction Between S100P and the Receptor for Advanced Glycation End-Products” (priority 2008, published 2011).
Where “and” joins values, the source holds several entries; their conditions need not be identical. Equal entries are not always repeated.

Columns and labels:
BxPC-3 cells = assay: BxPC-3 apoptosis by flow cytometry (PI staining); assay type: cell-based; settings: 48 hours
Protocol: BxPC-3 cells were treated with cromolyn (10 μM) with (+) or without (−) gemcitabine (10 μM), and apoptosis was analyzed after 48 hours by flow cytometry. *, P<0.001 versus control, #, P=0.001 versus gemcitabine. Means and 95% confidence intervals of three independent experiments performed in triplicate are shown. Two-tailed two-sample (unpaired) Student's t-tests were used to determine P values. Standard propidium iodide (PI) staining by the hypotonic lysis method was used for apoptosis studies. Apoptosis was induced in 1.0×10^6 BxPC-3 cells by treatment with gemcitabine (10 μM), with or without cromolyn. After 48 hours the cells were detached from culture dishes by incubation in 0.05% trypsin-EDTA, washed once with cold PBS, and then incubated for 30 minutes in 500 μL of hypotonic solution (0.1% sodium citrate, 0.1% Triton X-100, 100 μg/mL RNAse, and 50 μg/mL PI), and analyzed by flow cytometry (EPICS XL, Beckman Coulter Inc, Fullerton, Calif.). Cells undergoing apoptosis that had lost part of their DNA were identified as the population of cells with sub-G1 DNA content. These assays were performed three times.

Panc-1 tumors = assay: Panc-1 orthotopic tumor growth and metastasis in scid mice; assay type: in vivo
Protocol: FIGS. 6A-6F show the effect of cromolyn on Panc-1 tumor growth and metastasis in vivo. Panc-1 cells stably expressing the firefly luciferase gene were injected orthotopically into 4-week-old male CB 17 scid mice. […] Mice were divided into four groups of five mice each with an equivalent mean tumor size between groups. […] One group was treated with water (control), one group received gemcitabine bi-weekly (125 mg per kg body weight bi-weekly by intraperitoneal injection), one group was administered cromolyn daily (5 mg per kg body weight daily by intraperitoneal injection), and the final group was given the combination of cromolyn and gemcitabine. All groups were treated for six weeks. Bioluminescent imaging was done weekly to assess tumor growth. […] Means and 95% confidence intervals from two independent experiments are shown (n=20). Two-tailed two-sample (unpaired) Student's t-tests were used to determine P values. The anti-tumorigenic capability of the drug cromolyn was assessed in 4-week-old male CB 17 scid mice (n=20) carrying orthopic tumors of BxPC-3, MPanc96, and Panc-1 cells stably expressing a Lenti-luc reporter. All mouse experiments were reviewed and approved by the Institutional Animal Care and Use Committee of UT MD Anderson Cancer Center. All mice were maintained in a sterile environment. Cages, bedding, food, and water were all autoclaved. All mice were maintained on a daily 12-hour light/12-hour dark cycle, according to the institutional animal welfare guidelines. BxPC-3, MPanc96, and Pane-1 cells carrying the Lenti-luc reporter gene were grown to 80% confluence, harvested by incubation with trypsin-EDTA, washed twice in PBS, and resuspended to a final concentration of 4.0×10^6 cells/mL. Each mouse (n=20 mice per cell line) was injected (into the pancreas) with cell suspensions (50 μL). Bioluminescent imaging to determine tumor volume was performed 1 week after injection because the tumors became established within this amount of time. This initial tumor volume was used to divide the mice into four groups of five mice each, such that the mean tumor size was equal between groups (FIGS. 4A, 5A, and 6A). To allow enough time to observe differences among treatment groups, the mice were followed for the next 5 weeks. One group of mice was then treated biweekly with a sub-maximal concentration of gemcitabine (125 mg per kg body weight by i.p. injection). A second group was treated with a daily injection of cromolyn (5 mg per kg body weight by i.p. injection). A third group was treated with both bi-weekly gemcitabine and daily cromolyn. The control group was treated daily with vehicle. Treatments were continued for 5 weeks, and the effects on the tumor burden and metastasis were analyzed by weekly bioluminescence imaging (FIGS. 4B, 5B, and 6B). At the end of the experiment the mice were anesthetized with 1.5% isofluorane/air mixture and killed by cervical dislocation. Bioluminescence imaging was conducted using a cryogenically cooled IVIS 100 imaging system coupled to a data acquisition computer running Living Image software (Xenogen Corp., Alameda, Calif.). Before imaging, mice were placed in an acrylic chamber, anesthetized with 1.5% isofluorane/air mixture, and injected i.p. with 15 mg/mL of luciferin potassium salt in PBS at a dose of 150 mg per kg body weight. A digital grey scale image of each mouse was acquired, followed by acquisition and overlay of a pseudocolor image representing the spatial distribution of detected photons emerging from active luciferase within the mouse. Tumor volume was quantified as the sum of all detected photons within the region of the tumor per second. At the end of experiment, the mice were killed, and tumors were surgically removed and weighed. After the primary tumors were removed, cancer cell dissemination and metastasis was visualized using IVIS imaging, and metastatic colonies were counted. […]

S100B with RAGE = target: T1, S100B with RAGE (Homo sapiens, UniProt P04271); assay: ELISA of S100B binding to RAGE (sRAGE coated plate)
T1 sequence (P04271 1-92): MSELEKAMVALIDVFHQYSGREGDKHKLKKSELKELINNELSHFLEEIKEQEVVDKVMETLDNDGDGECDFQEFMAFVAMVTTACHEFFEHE
Text: After removing un-bound S100B by washing with detergent, bound S100B and RAGE complex was quantified by adding HRP labeled antibody against S100B.

MPanc-96 cells = assay: MPanc-96 cell apoptosis by flow cytometry, alone or with gemcitabine; assay type: cell-based, Human; settings: alone and in conjunction with gemcitabine 10 μM; 100 and 1000 nM; 72 hours
Protocol: FIG. 11 compares the effects of cromolyn and C5 alone and in combination with gemcitabine on MPanc-96 cell apoptosis. MPanc-96 cells were treated with cromolyn or C5 (100 and 1000 nM) with (+) or without (−) gemcitabine (10 μM). Apoptosis was analyzed after 72 hours by flow cytometry.

Compound	apoptotic cells, difference versus control (BxPC-3 cells; gemcitabine 10 μM)	apoptotic cells, mean (BxPC-3 cells; gemcitabine 10 μM, control 3.7%)	body weight, difference versus control (Panc-1 tumors; Panc-1 model)	liver or lung metastasis (Panc-1 tumors; Panc-1 model)	body weight at the end of the experiment, mean (Panc-1 tumors; Panc-1 model, control 32.0 g)	cell apoptosis, cromolyn alone (BxPC-3 cells; cromolyn 10 μM)	tumor development (Panc-1 tumors; Panc-1 model (no S100P), cromolyn 5 mg/kg daily i.p.)	effect on body weight (in words) (Panc-1 tumors; Panc-1 model, up to 6 weeks)	interaction of S100B with RAGE (S100B with RAGE)	MPanc-96 cell viability (MPanc-96 cells)
Nc1ccn([C@@H]2O[C@H](CO)[C@@H](O)C2(F)F)c(=O)n1 [gemcitabine]	27.3%	31.0% and 30.8%	4.8 g	neither cromolyn nor gemcitabine nor the combination reduced	27.2 g	–	–	–	–	–
O=C(O)c1cc(=O)c2c(OCC(O)COc3cccc4oc(C(=O)O)cc(=O)c34)cccc2o1 [cromolyn, disodium 1,3-bis[(2′-carboxylatochromon-5′-yl)oxy]-2-hydroxypropane]	–	–	–	neither cromolyn nor gemcitabine nor the combination reduced	–	no statistically significant effect	did not reduce	no effect	inhibit	inhibit
